Legend:
[1] = biological target: T1, TDO-expressing HEK293 cell clones (Homo sapiens, UniProt P48775); assay: Cell based kynurenine assay, TDO-expressing HEK293 cell clones; conditions: HEK293 cells, 24 hours of incubation, geometric mean; read-out: HEK293 TDO Kynurenine GMean IC50 (μM) (Cellular Assay)
T1 construct: expressed in transfected cells; host or cells: HEK293
Outline: (§1)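 IC50s come from nonlinear regression of % inhibition of kynurenine in culture supernatant after 24 hours of compound exposure. Controls were 0.2% DMSO-treated cells and media alone. Cells were stable human IDO1- or TDO-expressing HEK293 clones (CMV promoter), plated at 2.5×10^4 per well.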

[2] = biological target: T2, IDO1 (Homo sapiens, UniProt P14902); assay: IDO enzymatic assay; assay type: biochemical; conditions: geometric mean; read-out: IDO1 GMean: IC50 (μM) (Biochemical Assay)
T2 construct: His tag (N); made in house; host or cells: E. coli
T2 sequence (P14902 whole entry): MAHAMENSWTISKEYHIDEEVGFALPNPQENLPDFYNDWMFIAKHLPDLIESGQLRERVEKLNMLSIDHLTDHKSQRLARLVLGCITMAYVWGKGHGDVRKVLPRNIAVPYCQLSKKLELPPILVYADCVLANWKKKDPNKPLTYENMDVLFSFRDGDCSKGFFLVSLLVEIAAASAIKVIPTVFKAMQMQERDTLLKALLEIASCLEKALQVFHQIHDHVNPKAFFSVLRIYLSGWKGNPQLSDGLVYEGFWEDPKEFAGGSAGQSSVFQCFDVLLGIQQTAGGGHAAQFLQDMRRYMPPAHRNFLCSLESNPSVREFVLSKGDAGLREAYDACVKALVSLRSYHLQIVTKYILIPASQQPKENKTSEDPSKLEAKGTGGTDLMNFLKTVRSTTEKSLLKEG
Outline: (§2)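 Kynurenine formed after TCA hydrolysis (30 min, 50 °C) was quantified relative to full-reaction and no-enzyme controls, and IC50s were fitted. TDO reactions used 1 nM enzyme with 350 μM Trp and 0.4 μM methylene blue for 70 min; IDO reactions used 6 nM enzyme, 10 μM Trp, 5 μM methylene blue for 20 min; both at pH 6.5, room temperature.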

[3] = biological target: T3, TDO (Homo sapiens, UniProt P48775); assay: TDO enzymatic assay; conditions: geometric mean; read-out: TDO GMean: IC50 (μM) (Biochemical Assay)
T3 construct: His tag (N); made in house; host or cells: E. coli
T3 sequence (P48775 whole entry): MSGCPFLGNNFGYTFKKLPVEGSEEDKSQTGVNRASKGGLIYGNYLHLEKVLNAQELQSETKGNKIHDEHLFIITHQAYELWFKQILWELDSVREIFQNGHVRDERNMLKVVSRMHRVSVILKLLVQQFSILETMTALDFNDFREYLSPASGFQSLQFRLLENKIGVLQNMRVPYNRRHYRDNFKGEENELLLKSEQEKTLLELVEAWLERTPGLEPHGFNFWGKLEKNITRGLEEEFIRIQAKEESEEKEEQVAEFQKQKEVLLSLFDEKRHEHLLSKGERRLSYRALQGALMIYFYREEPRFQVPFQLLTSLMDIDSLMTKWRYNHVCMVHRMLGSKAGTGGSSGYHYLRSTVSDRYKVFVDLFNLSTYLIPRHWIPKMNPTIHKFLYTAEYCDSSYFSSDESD
Outline: as §2

[4] = biological target: T4, IDO1-expressing HEK293 cell clones (Homo sapiens, UniProt P14902); assay: Cell based kynurenine assay, IDO1-expressing HEK293 cell clones; conditions: HEK293 cells, 24 hours of incubation, geometric mean; read-out: HEK293 IDO1 Kynurenine GMean IC50 (μM) (Cellular Assay)
T4 construct: expressed in transfected cells; host or cells: HEK293
T4 sequence (P14902 whole entry): as the sequence (P14902 whole entry) above
Outline: as §1

T1 sequence (P48775 whole entry): as the sequence (P48775 whole entry) above

SMILES | IC50 [1] | IC50 [2] | IC50 [3] | IC50 [4]
CC(C)(C1CCN(C(=O)NCC2CC2)CC1)C(O)c1cc(Cl)cc2[nH]ncc12 (stereo not shown) [Compound P-0080, 4-(1-(6-chloro-1H-indazol-4-yl)-1-hydroxy-2-methylpropan-2-yl)-N-(cyclopropylmethyl)piperidine-1-carboxamide] | 0.0001 to 10 µM | 0.0001 to 10 µM | 0.0001 to 10 µM | 0.0001 to 10 µM
CC(C)(C1CCN(C(=O)Nc2ccc(F)cc2F)CC1)C(O)c1cc(Cl)cc2[nH]ncc12 (stereo not shown) [Compound P-0082, 4-(1-(6-chloro-1H-indazol-4-yl)-1-hydroxy-2-methylpropan-2-yl)-N-(2,4-difluorophenyl)piperidine-1-carboxamide] | 0.0001 to 10 µM | 0.0001 to 10 µM | 0.0001 to 10 µM | > 10 µM
COCCNC(=O)N1CCC(C(C)(C)C(O)c2cc(Cl)cc3[nH]ncc23)CC1 (stereo not shown) [Compound P-0083, 4-(1-(6-chloro-1H-indazol-4-yl)-1-hydroxy-2-methylpropan-2-yl)-N-(2-methoxyethyl)piperidine-1-carboxamide] | 0.0001 to 10 µM | 0.0001 to 10 µM | 0.0001 to 10 µM | 0.0001 to 10 µM
CC(C)(C1CCN(C(=O)NCCC(F)(F)F)CC1)C(O)c1cc(Cl)cc2[nH]ncc12 (stereo not shown) [Compound P-0086, 4-(1-(6-chloro-1H-indazol-4-yl)-1-hydroxy-2-methylpropan-2-yl)-N-(3,3,3-trifluoropropyl)piperidine-1-carboxamide] | 0.0001 to 10 µM | 0.0001 to 10 µM | 0.0001 to 10 µM | 0.0001 to 10 µM
CC(C)(C1CCN(C(=O)NCC#N)CC1)C(O)c1cc(Cl)cc2[nH]ncc12 (stereo not shown) [Compound P-0087, 4-(1-(6-chloro-1H-indazol-4-yl)-1-hydroxy-2-methylpropan-2-yl)-N-(cyanomethyl)piperidine-1-carboxamide] | 0.0001 to 10 µM | 0.0001 to 10 µM | 0.0001 to 10 µM | > 10 µM
CNC(=O)CNC(=O)N1CCC(C(C)(C)C(O)c2cc(Cl)cc3[nH]ncc23)CC1 (stereo not shown) [Compound P-0089, 4-(1-(6-chloro-1H-indazol-4-yl)-1-hydroxy-2-methylpropan-2-yl)-N-(2-(methylamino)-2-oxoethyl)piperidine-1-carboxamide] | 0.0001 to 10 µM | 0.0001 to 10 µM | 0.0001 to 10 µM | 0.0001 to 10 µM
CC(C)(C1CCN(C(=O)NCC(F)F)CC1)C(O)c1cc(Cl)cc2[nH]ncc12 (stereo not shown) [Compound P-0091, 4-(1-(6-chloro-1H-indazol-4-yl)-1-hydroxy-2-methylpropan-2-yl)-N-(2,2-difluoroethyl)piperidine-1-carboxamide] | 0.0001 to 10 µM | 0.0001 to 10 µM | 0.0001 to 10 µM | 0.0001 to 10 µM
CC(C)(C1CCN(C(=O)NCC2CCC2)CC1)C(O)c1cc(Cl)cc2[nH]ncc12 (stereo not shown) [Compound P-0092, 4-(1-(6-chloro-1H-indazol-4-yl)-1-hydroxy-2-methylpropan-2-yl)-N-(cyclobutylmethyl)piperidine-1-carboxamide] | 0.0001 to 10 µM | 0.0001 to 10 µM | 0.0001 to 10 µM | 0.0001 to 10 µM
CC(C)(C1CCN(C(=O)NC2CC(F)(F)C2)CC1)C(O)c1cc(Cl)cc2[nH]ncc12 (stereo not shown) [Compound P-0094, 4-(1-(6-chloro-1H-indazol-4-yl)-1-hydroxy-2-methylpropan-2-yl)-N-(3,3-difluorocyclobutyl)piperidine-1-carboxamide] | 0.0001 to 10 µM | 0.0001 to 10 µM | 0.0001 to 10 µM | 0.0001 to 10 µM
CC(C)(C1CCN(C(=O)N[C@@H]2CCOC2)CC1)C(O)c1cc(Cl)cc2[nH]ncc12 (stereo partly drawn) [Compound P-0113, 4-(1-(6-chloro-1H-indazol-4-yl)-1-hydroxy-2-methylpropan-2-yl)-N-((R)-tetrahydrofuran-3-yl)piperidine-1-carboxamide] | 0.0001 to 10 µM | 0.0001 to 10 µM | 0.0001 to 10 µM | 0.0001 to 10 µM
CC(C)(C1CCN(C(=O)NC[C@H]2CCCO2)CC1)C(O)c1cc(Cl)cc2[nH]ncc12 (stereo partly drawn) [Compound P-0115, 4-(1-(6-chloro-1H-indazol-4-yl)-1-hydroxy-2-methylpropan-2-yl)-N-(((R)-tetrahydrofuran-2-yl)methyl)piperidine-1-carboxamide] | 0.0001 to 10 µM | 0.0001 to 10 µM | 0.0001 to 10 µM | 0.0001 to 10 µM

More lines, now with the values ahead:

IC50 [1] | IC50 [2] | IC50 [3] | IC50 [4] | SMILES
0.0001 to 10 µM | 0.0001 to 10 µM | 0.0001 to 10 µM | 0.0001 to 10 µM | CC(C)(C1CCN(C(=O)NC2CCC2)CC1)C(O)c1cc(Cl)cc2[nH]ncc12 (stereo not shown) [Compound P-0078, 4-(1-(6-chloro-1H-indazol-4-yl)-1-hydroxy-2-methylpropan-2-yl)-N-cyclobutylpiperidine-1-carboxamide]
0.0001 to 10 µM | 0.0001 to 10 µM | 0.0001 to 10 µM | 0.0001 to 10 µM | CC(C)(C1CCN(C(=O)NC2CCOCC2)CC1)C(O)c1cc(Cl)cc2[nH]ncc12 (stereo not shown) [Compound P-0079, 4-(1-(6-chloro-1H-indazol-4-yl)-1-hydroxy-2-methylpropan-2-yl)-N-(tetrahydro-2H-pyran-4-yl)piperidine-1-carboxamide]
0.0001 to 10 µM | 0.0001 to 10 µM | 0.0001 to 10 µM | 0.0001 to 10 µM | CC(C)(C1CCN(C(=O)NC2CC2)CC1)C(O)c1cc(Cl)cc2[nH]ncc12 (stereo not shown) [Compound P-0081, 4-(1-(6-chloro-1H-indazol-4-yl)-1-hydroxy-2-methylpropan-2-yl)-N-cyclopropylpiperidine-1-carboxamide]
0.0001 to 10 µM | 0.0001 to 10 µM | 0.0001 to 10 µM | 0.0001 to 10 µM | CC(C)(C1CCN(C(=O)NCC(F)(F)F)CC1)C(O)c1cc(Cl)cc2[nH]ncc12 (stereo not shown) [Compound P-0084, 4-(1-(6-chloro-1H-indazol-4-yl)-1-hydroxy-2-methylpropan-2-yl)-N-(2,2,2-trifluoroethyl)piperidine-1-carboxamide]
0.0001 to 10 µM | 0.0001 to 10 µM | 0.0001 to 10 µM | > 10 µM | CC(C)(C1CCN(C(=O)NCCS(C)(=O)=O)CC1)C(O)c1cc(Cl)cc2[nH]ncc12 (stereo not shown) [Compound P-0085, 4-(1-(6-chloro-1H-indazol-4-yl)-1-hydroxy-2-methylpropan-2-yl)-N-(2-(methylsulfonyl)ethyl)piperidine-1-carboxamide]
0.0001 to 10 µM | 0.0001 to 10 µM | 0.0001 to 10 µM | > 10 µM | C#CCNC(=O)N1CCC(C(C)(C)C(O)c2cc(Cl)cc3[nH]ncc23)CC1 (stereo not shown) [Compound P-0088, 4-(1-(6-chloro-1H-indazol-4-yl)-1-hydroxy-2-methylpropan-2-yl)-N-(prop-2-yn-1-yl)piperidine-1-carboxamide]
0.0001 to 10 µM | 0.0001 to 10 µM | 0.0001 to 10 µM | > 10 µM | CC(C)(C1CCN(C(=O)NCCCF)CC1)C(O)c1cc(Cl)cc2[nH]ncc12 (stereo not shown) [Compound P-0090, 4-(1-(6-chloro-1H-indazol-4-yl)-1-hydroxy-2-methylpropan-2-yl)-N-(3-fluoropropyl)piperidine-1-carboxamide]
0.0001 to 10 µM | 0.0001 to 10 µM | 0.0001 to 10 µM | > 10 µM | CONC(=O)N1CCC(C(C)(C)C(O)c2cc(Cl)cc3[nH]ncc23)CC1 (stereo not shown) [Compound P-0093, 4-(1-(6-chloro-1H-indazol-4-yl)-1-hydroxy-2-methylpropan-2-yl)-N-methoxypiperidine-1-carboxamide]
0.0001 to 10 µM | 0.0001 to 10 µM | 0.0001 to 10 µM | 0.0001 to 10 µM | N#CC1CCN(c2cc(Cl)cc3cn[nH]c23)CC1 [Compound P-0097, 1-(5-chloro-1H-indazol-7-yl)piperidine-4-carbonitrile]
0.0001 to 10 µM | 0.0001 to 10 µM | 0.0001 to 10 µM | 0.0001 to 10 µM | CS(=O)(=O)N1CC=C(c2cc(Cl)cc3cn[nH]c23)CC1 [Compound P-0098, 5-chloro-7-(1-(methylsulfonyl)-1,2,3,6-tetrahydropyridin-4-yl)-1H-indazole]
0.0001 to 10 µM | 0.0001 to 10 µM | 0.0001 to 10 µM | 0.0001 to 10 µM | OC1(c2cc(Cl)cc3cn[nH]c23)CC(C2CC2)(C2CC2)C1 [Compound P-0108, 1-(5-chloro-1H-indazol-7-yl)-3,3-dicyclopropylcyclobutan-1-ol]
0.0001 to 10 µM | 0.0001 to 10 µM | 0.0001 to 10 µM | > 10 µM | CC(C)(C1CCN(C(=O)NCCF)CC1)C(O)c1cc(Cl)cc2[nH]ncc12 (stereo not shown) [Compound P-0110, 4-(1-(6-chloro-1H-indazol-4-yl)-1-hydroxy-2-methylpropan-2-yl)-N-(2-fluoroethyl)piperidine-1-carboxamide]
0.0001 to 10 µM | 0.0001 to 10 µM | 0.0001 to 10 µM | 0.0001 to 10 µM | CC(C)(C1CCN(C(=O)NC2CCC(F)(F)CC2)CC1)C(O)c1cc(Cl)cc2[nH]ncc12 (stereo not shown) [Compound P-0112, 4-(1-(6-chloro-1H-indazol-4-yl)-1-hydroxy-2-methylpropan-2-yl)-N-(4,4-difluorocyclohexyl)piperidine-1-carboxamide]
0.0001 to 10 µM | 0.0001 to 10 µM | 0.0001 to 10 µM | 0.0001 to 10 µM | CC(C)(C1CCN(C(=O)N[C@H]2CCOC2)CC1)C(O)c1cc(Cl)cc2[nH]ncc12 (stereo partly drawn) [Compound P-0114, 4-(1-(6-chloro-1H-indazol-4-yl)-1-hydroxy-2-methylpropan-2-yl)-N-((S)-tetrahydrofuran-3-yl)piperidine-1-carboxamide]
